The results in this text go back to ChEMBL document CHEMBL1137469, “(3R,4S)-4-(2,4,5-Trifluorophenyl)-pyrrolidin-3-ylamine inhibitors of dipeptidyl peptidase IV: synthesis, in vitro, in vivo, and X-ray crystallographic characterization” (Bioorg Med Chem Lett, 2007).

One series concerns the target Dipeptidyl peptidase 4 (Homo sapiens, UniProt P27487).
The target in another series is Dipeptidyl peptidase 2 (Homo sapiens, UniProt Q9UHL4). Put plainly: Inhibition of human recombinant DPP2.
The next series addresses T1, Dipeptidyl peptidase 3 (Homo sapiens, UniProt Q9NY33).
T1 sequence (Q9NY33 whole entry): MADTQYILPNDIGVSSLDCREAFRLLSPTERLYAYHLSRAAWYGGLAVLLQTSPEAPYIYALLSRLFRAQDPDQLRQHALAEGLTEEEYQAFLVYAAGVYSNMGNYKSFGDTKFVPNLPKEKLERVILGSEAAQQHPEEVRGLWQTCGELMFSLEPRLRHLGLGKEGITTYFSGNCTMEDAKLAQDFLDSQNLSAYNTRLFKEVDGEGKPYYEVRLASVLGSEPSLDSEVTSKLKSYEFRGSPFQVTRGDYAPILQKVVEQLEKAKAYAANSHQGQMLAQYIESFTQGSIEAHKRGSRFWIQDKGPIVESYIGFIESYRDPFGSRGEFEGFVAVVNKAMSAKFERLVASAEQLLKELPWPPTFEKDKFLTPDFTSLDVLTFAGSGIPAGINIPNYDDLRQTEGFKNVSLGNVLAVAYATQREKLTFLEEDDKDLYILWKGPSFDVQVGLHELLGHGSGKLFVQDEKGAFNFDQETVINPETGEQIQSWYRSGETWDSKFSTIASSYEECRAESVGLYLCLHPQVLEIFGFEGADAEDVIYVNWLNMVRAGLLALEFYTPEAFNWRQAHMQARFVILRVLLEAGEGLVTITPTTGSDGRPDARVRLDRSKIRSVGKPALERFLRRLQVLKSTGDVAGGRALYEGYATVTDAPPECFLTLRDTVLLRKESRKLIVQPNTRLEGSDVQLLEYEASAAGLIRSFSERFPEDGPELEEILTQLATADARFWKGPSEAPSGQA
Put plainly: Inhibition of DPP3.

Series [1] in a line: Plasma clearance in rat. The series is classed as ADME, organism-based.
Series [2] can be described thus: Volume of distribution at steady state in dog plasma. The format is ADME, organism-based, Canis lupus familiaris. The note with it: read-out: Vdss.
Series [3] is described as follows: Half life in po dosed rat plasma. The series is classed as ADME, organism-based.
Series [4] in a line: Half life in iv dosed rat plasma. The format is ADME, organism-based.
A short description of series [5]: Half life in iv dosed dog plasma. The series is classed as ADME, organism-based, Canis lupus familiaris.
Series [6] can be described thus: Volume of distribution at steady state in rat plasma. The series is classed as ADME, organism-based. The note with it: read-out: Vdss.
Series [7] in a line: Percent of unbound ligand in dog plasma. The format is ADME, cell-free, Canis lupus familiaris.
Series [8] is described as follows: Plasma clearance in dog. The series is classed as ADME, organism-based, Canis lupus familiaris.
Series [9] in a line: Oral bioavailability in rat plasma. The series is classed as ADME, organism-based.

The structures appear in SMILES notation. pIC50: −log10 of the molar value. Some results are limits rather than exact numbers.

Dipeptidyl peptidase 4, sequence (P27487 whole entry): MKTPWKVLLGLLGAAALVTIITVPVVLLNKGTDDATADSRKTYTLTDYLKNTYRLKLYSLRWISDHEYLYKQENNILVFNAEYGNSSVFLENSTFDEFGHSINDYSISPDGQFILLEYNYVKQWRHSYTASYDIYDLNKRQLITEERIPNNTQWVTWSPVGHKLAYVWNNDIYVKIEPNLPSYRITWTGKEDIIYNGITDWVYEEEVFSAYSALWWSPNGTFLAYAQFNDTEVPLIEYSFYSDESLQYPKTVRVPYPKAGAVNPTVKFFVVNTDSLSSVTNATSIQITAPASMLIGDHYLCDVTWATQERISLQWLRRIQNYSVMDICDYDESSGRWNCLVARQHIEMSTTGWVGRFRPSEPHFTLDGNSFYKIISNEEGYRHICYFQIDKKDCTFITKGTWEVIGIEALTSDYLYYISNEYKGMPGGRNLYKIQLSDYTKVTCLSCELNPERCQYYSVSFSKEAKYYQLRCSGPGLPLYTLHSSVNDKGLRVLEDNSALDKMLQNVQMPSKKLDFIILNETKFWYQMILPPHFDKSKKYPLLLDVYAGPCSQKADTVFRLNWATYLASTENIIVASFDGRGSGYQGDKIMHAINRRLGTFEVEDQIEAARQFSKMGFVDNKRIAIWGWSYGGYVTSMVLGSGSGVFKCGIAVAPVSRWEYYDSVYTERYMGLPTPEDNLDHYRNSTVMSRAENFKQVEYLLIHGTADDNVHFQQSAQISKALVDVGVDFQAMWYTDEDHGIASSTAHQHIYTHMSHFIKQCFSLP

In turn, `N[C@H]1CN(c2cc(Cl)nc(-c3ccccc3)n2)C[C@@H]1c1ccccc1` showed a pIC50 on Dipeptidyl peptidase 4 below 5.52.
The same measure, in the same setting: to `N[C@H]1CN(c2ccc3ccccc3n2)C[C@@H]1c1ccccc1` belongs below 5.52; to `N[C@H]1CN(c2cc(-c3ccc(Cl)cc3)ncn2)C[C@@H]1c1ccccc1`, below 5.52; to `CN(C)c1ccc([C@@H]2CN(c3nc4c(cc3F)c(=O)c(C(=O)O)cn4C3CC3)C[C@@H]2N)cc1` (relative stereo), below 5.52.
Still for that read-out and setting: the figure for `COc1ccc([C@@H]2CN(c3nc4c(cc3F)c(=O)c(C(=O)O)cn4C3CC3)C[C@@H]2N)cc1` (relative stereo) is below 5.52.
For `N[C@H]1CN(c2cc(-c3cccc(F)c3)ncn2)C[C@@H]1c1cc(F)c(F)cc1F`, the pIC50 on Dipeptidyl peptidase 2 was 4.82.
`Nc1ccc([C@@H]2CN(c3nc4c(cc3F)c(=O)c(C(=O)O)cn4C3CC3)C[C@@H]2N)cc1` (relative stereo) had a negative-log IC50 (pIC50) against Dipeptidyl peptidase 4 below 5.52.
Still for that read-out and setting: the figure for `N#Cc1cccnc1N1C[C@H](c2ccccc2)[C@@H](N)C1` is below 5.52; for `N[C@H]1CN(c2cc(-c3ccccc3Cl)ncn2)C[C@@H]1c1ccccc1` it is below 5.52; for `CC(C)c1ccc([C@@H]2CN(c3nc4c(cc3F)c(=O)c(C(=O)O)cn4C3CC3)C[C@@H]2N)cc1` (relative stereo) it is below 5.52.
Regarding `CC(=O)c1ccc(N2C[C@H](c3ccccc3)[C@@H](N)C2)nc1`, the pIC50 against Dipeptidyl peptidase 4 is below 5.52.
Turning to `N[C@H]1CN(c2nc3c(cc2F)c(=O)c(C(=O)O)cn3C2CC2)C[C@H]1c1ccc(O)cc1` (relative stereo), on Dipeptidyl peptidase 4, the pIC50 is below 5.52.
The molecule `Cn1cnc2c(N3C[C@H](c4ccccc4)[C@@H](N)C3)ncnc21` gave a pIC50 against Dipeptidyl peptidase 4 below 5.52.
Consider `COc1ccc(-c2cc(N3C[C@H](c4cc(F)c(F)cc4F)[C@@H](N)C3)ncn2)cn1`, for which the values for the pIC50 against Dipeptidyl peptidase 3 and on Dipeptidyl peptidase 2 were below 4.52 and 4.72, respectively. The clearance was determined as 4.4 mL/min/kg in series [1] and 4.8 mL/min/kg in [8]. The Vd stood at 1.9 L/kg in series [2] and 0.67 L/kg in [6]. Also, the figures for the half-life in [3], in [4] and in series [5] were 3.3 h, 2.8 h and 5.1 h, respectively. This molecule yielded a fraction unbound in series [7] of 0.17. In series [9], this molecule showed a bioavailability of 57%.
In the case of `COC(=O)c1ccc([C@@H]2CN(c3nc4c(cc3F)c(=O)c(C(=O)O)cn4C3CC3)C[C@@H]2N)cc1` (relative stereo), the pIC50 on Dipeptidyl peptidase 4 was below 5.52.
On the same count and under the same terms, the figure for `N[C@H]1CN(c2cc(-c3ccc(O)cc3)ncn2)C[C@@H]1c1ccccc1` is below 5.52.
In the case of `N[C@H]1CN(c2cc(-c3ccccc3)ncn2)C[C@@H]1c1cc(F)c(F)cc1F`, at Dipeptidyl peptidase 2, the pIC50 was 4.74.
At Dipeptidyl peptidase 4, `N[C@H]1CN(c2cnc3ccccc3n2)C[C@@H]1c1ccccc1` gave a pIC50 below 5.52.

In general, pIC50 refers to the negative decadic logarithm of the IC50, by convention in mol/L. Usually clearance stands for the volume of plasma or blood freed of the substance per unit of time. Usually half-life stands for the time in which the quantity being followed falls by half. Read a low half-life as rapid decline. What is called fraction unbound is the share of the substance not bound to proteins or other matrix. High values mean weak binding, low ones extensive binding. By bioavailability is commonly meant dose-corrected exposure relative to a reference, in per cent.
